Laboratory results reported in US20250333418A1, “PURINE COMPOUNDS, COMPOSITIONS COMPRISING THEM AND USES THEREOF” (Novo Nordisk A/S, priority 2022, published 2025).

Columns and labels:
[1] = target: T1, human CB1 receptor (Homo sapiens, UniProt P21554); assay: bioSensAll GAPL-Gi2 BRET biosensor assay in HEK293 cells transfected with hCB1; test compound added before EC75-80 of agonist CP55,940 (0.1 nM); format: cell-based; conditions: vs CP55,940 0.1 nM (EC75-80), read-out: CB1 wt Gi2 IC50
T1 construct: expressed in transfected cells; host or cells: HEK293
How it was run: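 Test compounds at 12 doses up to 600 nM preceded a 0.1 nM CP55,940 challenge in hCB1/GAPL-Gi2 HEK293 cells. After overnight 37° C incubation, methoxy e-coelenterazine (2 µM final) was added and the 515/400 nm BRET ratio normalized to positive and negative controls.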

[2] = target: T1, human CB1 receptor; assay: bioSensAll β-arrestin2 plasma membrane translocation (+GRK2) BRET biosensor assay in HEK293 cells transfected with hCB1; test compound added before EC75-80 of agonist CP55,940 (100 nM); format: cell-based; conditions: βArrestin2 (+GRK2) BRET biosensor, vs CP55,940 100 nM (EC75-80), read-out: CB1 wt βarr2 IC50
How it was run: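 HEK293 cells co-transfected with hCB1 and β-arrestin2 PM-translocation BRET biosensor (+GRK2); 48 h post-transfection in HBSS, test compound (0–600 nM, 12 points) added 3–5 min before CP55,940 at 100 nM (EC75-80). Overnight incubation at 37 °C; BRET (515/400 nm) read after 2 µM e-coelenterazine Prolume Purple, standardized to controls.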

T1 sequence (P21554 whole entry): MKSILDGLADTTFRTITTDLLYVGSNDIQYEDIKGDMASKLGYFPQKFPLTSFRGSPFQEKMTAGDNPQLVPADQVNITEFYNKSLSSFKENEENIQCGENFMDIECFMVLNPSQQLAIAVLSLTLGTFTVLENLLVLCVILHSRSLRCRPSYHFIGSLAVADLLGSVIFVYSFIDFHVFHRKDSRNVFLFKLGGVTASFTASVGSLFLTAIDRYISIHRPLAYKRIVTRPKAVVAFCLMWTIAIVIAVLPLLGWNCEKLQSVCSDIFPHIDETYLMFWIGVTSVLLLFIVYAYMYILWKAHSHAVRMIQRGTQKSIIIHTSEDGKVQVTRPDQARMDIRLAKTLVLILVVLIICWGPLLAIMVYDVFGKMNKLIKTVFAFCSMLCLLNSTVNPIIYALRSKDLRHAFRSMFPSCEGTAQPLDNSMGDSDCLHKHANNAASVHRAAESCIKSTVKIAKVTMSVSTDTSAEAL

Compound	IC50 [1] [nM]	IC50 [2] [nM]
CCNC1(C(N)=O)CCN(c2nc(N3CCC(CO)C3)nc3c2nc(-c2ccccc2Cl)n3-c2ccc(Cl)cc2)CC1 (stereo not shown) [Compound 153]	0.503	1.29
NC(=O)C1CCN(c2nc(N3CCC[C@H]3CO)nc3c2nc(-c2ccccc2Cl)n3-c2ccc(Cl)cc2)CC1 [Compound 154]	0.813	7.28
CN(CCO)c1nc(N2CCC(C(N)=O)CC2)c2nc(-c3ccccc3Cl)n(-c3ccc(Cl)cc3)c2n1 [Compound 155]	1.01	14.8
CNCCOc1nc(N2CCC(C(N)=O)CC2)c2nc(-c3ccccc3Cl)n(-c3ccc(Cl)cc3)c2n1 [Compound 156]	54.7	> 5000
CN(CCO)c1nc(N2CCN(C(N)=O)CC2)c2nc(-c3ccccc3Cl)n(-c3ccc(Cl)cc3)c2n1 [Compound 157]	0.938	6.04
CN(CCO)c1nc(N2CCC(C)(C(N)=O)CC2)c2nc(-c3ccccc3Cl)n(-c3ccc(Cl)cc3)c2n1 [Compound 158, 1-[8-(2-chlorophenyl)-9-(4-chlorophenyl)-2-((2-hydroxyethyl)(methyl)amino)-purin-6-yl]-4-methyl-piperidine-4-carboxamide]	0.555	0.931
CC1(C(N)=O)CCN(c2nc(OC[C@@H]3CCCN3)nc3c2nc(-c2ccccc2Cl)n3-c2ccc(Cl)cc2)CC1 [Compound 160, 1-[8-(2-chlorophenyl)-9-(4-chlorophenyl)-2-((2S)-pyrrolidinemethoxy)-purin-6-yl]-4-methyl-piperidine-4-carboxamide]	0.868	21.7
CN(CCO)c1nc(N2CCC(C(F)(F)F)CC2)c2nc(-c3ccccc3Cl)n(-c3ccc(Cl)cc3)c2n1 [Compound 161, 1-[[8-(2-chlorophenyl)-9-(4-chlorophenyl)-6-[4-(trifluoromethyl)-1-piperidyl]purin-2-yl]-methyl-amino]-ethan-2-ol]	0.95	1.53
OC[C@@H]1CCCN1c1nc(N2CCC(C(F)(F)F)CC2)c2nc(-c3ccccc3Cl)n(-c3ccc(Cl)cc3)c2n1 [Compound 162, [(2S)-1-[8-(2-chlorophenyl)-9-(4-chlorophenyl)-6-[4-(trifluoromethyl)-1-piperidyl]purin-2-yl]pyrrolidin-2-yl]methanol]	1.3	1.83
OC[C@@H]1CCCN1c1nc(-c2ccc(C(F)(F)F)nc2)c2nc(-c3ccccc3Cl)n(-c3ccc(Cl)cc3)c2n1 [Compound 163]	0.491	2.78
O=S1(=O)CCC(Nc2nc(-n3ccnc3)nc3c2nc(-c2ccccc2Cl)n3-c2ccc(Cl)cc2)CC1 [Compound 164]	1.66	22.8
CN(CCO)c1nc(-c2ccc(C(F)(F)F)nc2)c2nc(-c3ccccc3Cl)n(-c3ccc(Cl)cc3)c2n1 [Compound 165]	0.413	2.03
O=S1(=O)CCC(Nc2nc(N3CCC[C@H]3CO)nc3c2nc(-c2ccccc2Cl)n3-c2ccc(Cl)cc2)CC1 [Compound 166]	0.308	1.4
CN(CCO)c1nc(NC2CCS(=O)(=O)CC2)c2nc(-c3ccccc3Cl)n(-c3ccc(Cl)cc3)c2n1 [Compound 167]	0.421	4.39
CN1CCN(c2nc(N(C)CCO)nc3c2nc(-c2ccccc2Cl)n3-c2ccc(Cl)cc2)CC1 [Compound 168]	1.93	12
OC[C@@H]1CN(c2nc(N3CCC[C@H]3CO)nc3c2nc(-c2ccccc2Cl)n3-c2ccc(Cl)cc2)CCO1 [Compound 169]	0.532	2.04
CN(CCO)c1nc(N2CCO[C@H](CO)C2)c2nc(-c3ccccc3Cl)n(-c3ccc(Cl)cc3)c2n1 [Compound 170]	0.597	3.49
COC(=O)N1CCN(c2nc(N(C)CCO)nc3c2nc(-c2ccccc2Cl)n3-c2ccc(Cl)cc2)CC1 [Compound 173]	0.419	1.51
CN(CCO)c1nc(NC2CN(C(N)=O)C2)c2nc(-c3ccccc3Cl)n(-c3ccc(Cl)cc3)c2n1 [Compound 176]	15.6	> 5000
CCOC1(C(N)=O)CCN(c2nc(N3CCC[C@H]3CO)nc3c2nc(-c2ccccc2Cl)n3-c2ccc(Cl)cc2)CC1 [Compound 177]	0.436	1.88
CN(CCO)c1nc(NC2CCOCC2)c2nc(-c3ccccc3Cl)n(-c3ccc(Cl)cc3)c2n1 [Compound 178]	0.544	4.04
CN(CCO)c1nc(NC2CN(C(=O)C(F)(F)F)C2)c2nc(-c3ccccc3Cl)n(-c3ccc(Cl)cc3)c2n1 [Compound 179]	0.244	1.92
CN(CCO)c1nc(N2CCC(C)(O)CC2)c2nc(-c3ccccc3Cl)n(-c3ccc(Cl)cc3)c2n1 [Compound 181]	0.181	0.592
CCOC1(C(N)=O)CCN(c2nc(N(C)CCO)nc3c2nc(-c2ccccc2Cl)n3-c2ccc(Cl)cc2)CC1 [Compound 182]	0.175	0.661
CN(CCO)c1nc(N2CCOCC2)c2nc(-c3ccccc3Cl)n(-c3ccc(Cl)cc3)c2n1 [Compound 183]	0.167	0.785

Compound	IC50 [1] [nM]	IC50 [2] [nM]
CN(CCO)c1nc(N2CCC(F)(F)CC2)c2nc(-c3ccccc3Cl)n(-c3ccc(Cl)cc3)c2n1 [Compound 184]	0.24	0.889
CN(CCO)c1nc(N2CCC3(CCNC3=O)CC2)c2nc(-c3ccccc3Cl)n(-c3ccc(Cl)cc3)c2n1 [Compound 186]	0.407	4.92
CN(CCO)C(=O)C1CN(c2nc(N(C)CCO)nc3c2nc(-c2ccccc2Cl)n3-c2ccc(Cl)cc2)C1 [Compound 187]	3.97	40.4
CN(CCO)c1nc(N2CC3(COC3)C2)c2nc(-c3ccccc3Cl)n(-c3ccc(Cl)cc3)c2n1 [Compound 188]	0.31	1.84
CC(C)Oc1nc(N(C)CCO)nc2c1nc(-c1ccccc1Cl)n2-c1ccc(Cl)cc1 [Compound 189]	0.419	1.35
CN(CCO)c1nc(N2CCC3(CC2)NC(=O)NC3=O)c2nc(-c3ccccc3Cl)n(-c3ccc(Cl)cc3)c2n1 [Compound 190]	2.66	23.7
CN(CCO)c1nc(N2CCC3(CCOC3)CC2)c2nc(-c3ccccc3Cl)n(-c3ccc(Cl)cc3)c2n1 [Compound 191]	0.418	0.626
CN(CCO)c1nc(N(C)C2CCOC2)c2nc(-c3ccccc3Cl)n(-c3ccc(Cl)cc3)c2n1 (stereo not shown) [Compound 197]	0.161	1.19
CC(C)(O)COc1nc(N2CCC(C(N)=O)CC2)c2nc(-c3ccccc3Cl)n(-c3ccc(Cl)cc3)c2n1 [Compound 198]	7.69	31.5
CC(C)(O)COc1nc(N2CCC(C)(O)CC2)c2nc(-c3ccccc3Cl)n(-c3ccc(Cl)cc3)c2n1 [Compound 199]	0.732	3.27
CN(CCO)c1nc(N(C)CCO)c2nc(-c3ccccc3Cl)n(-c3ccc(Cl)cc3)c2n1 [Compound 200]	1.72	25.2
CC(C)(O)COc1nc(N2C[C@H]3C[C@@H]2CO3)c2nc(-c3ccccc3Cl)n(-c3ccc(Cl)cc3)c2n1 [Compound 203]	1.39	6.49
CC(C)(O)COc1nc(N2C[C@@H]3C[C@H]2CO3)c2nc(-c3ccccc3Cl)n(-c3ccc(Cl)cc3)c2n1 [Compound 204]	3.96	16.6
CC(C)Oc1nc(OC(C)C)c2nc(-c3ccccc3Cl)n(-c3ccc(Cl)cc3)c2n1 [Compound 205]	6.04	54.6
C[C@@H]1CN(c2nc(OCC(C)(C)O)nc3c2nc(-c2ccccc2Cl)n3-c2ccc(Cl)cc2)CCO1 [Compound 206]	0.782	6.99
CCOC1(C(N)=O)CCN(c2nc(OCC(C)(C)O)nc3c2nc(-c2ccccc2Cl)n3-c2ccc(Cl)cc2)CC1 [Compound 207]	0.652	2.02
CC(C)(O)COc1nc(N2CCS(=O)(=O)CC2)c2nc(-c3ccccc3Cl)n(-c3ccc(Cl)cc3)c2n1 [Compound 209]	1.34	14.7
C[C@H]1CN(c2nc(OCC(C)(C)O)nc3c2nc(-c2ccccc2Cl)n3-c2ccc(Cl)cc2)CCO1 [Compound 210]	1.56	18.7
C[C@H]1COCCN1c1nc(OCC(C)(C)O)nc2c1nc(-c1ccccc1Cl)n2-c1ccc(Cl)cc1 [Compound 211]	0.943	6.86
C[C@@H]1COCCN1c1nc(OCC(C)(C)O)nc2c1nc(-c1ccccc1Cl)n2-c1ccc(Cl)cc1 [Compound 212]	2.51	25.9
COC1(C(N)=O)CCN(c2nc(OCC(C)(C)O)nc3c2nc(-c2ccccc2Cl)n3-c2ccc(Cl)cc2)CC1 [Compound 213]	1.85	7.84
CC(C)(O)COc1nc(N2CC3CCC(C2)O3)c2nc(-c3ccccc3Cl)n(-c3ccc(Cl)cc3)c2n1 [Compound 214]	1.09	6.06
CC(C)OC1(C(N)=O)CCN(c2nc(OCC(C)(C)O)nc3c2nc(-c2ccccc2Cl)n3-c2ccc(Cl)cc2)CC1 [Compound 215]	0.707	1.64
CC(C)(O)COc1nc(N2CCC(C)(C(=O)O)CC2)c2nc(-c3ccccc3Cl)n(-c3ccc(Cl)cc3)c2n1 [Compound 220]	3.47	23.2
CC(C)(O)COc1nc(N2CCNCC(F)(F)C2)c2nc(-c3ccccc3Cl)n(-c3ccc(Cl)cc3)c2n1 [Compound 221]	4.04	30.6
